# Reference: patent publication US7803377B2, “Anti-DLL4 antibodies and methods using same” (Genentech, Inc., priority 2006, dated 2010)
# Tests used:
# [1] = tested on: human colon cancer HM7 cells; test: Tumor model HM7; assay type: in vivo, mouse; settings: treatment initiated at ≧250 mm^3; 10 mg/kg i.p. twice weekly; two weeks of treatment
# Description: (§1) Tumor models. Beige nude female mice of 8- to 10-week-old were used. To obtain subcutaneous tumors, mice were injected with 0.1 ml cell suspension containing 50% matrigel (BD Bioscience) into the right posterior flank. 5×10^6 human colon cancer HM7 cells, 10×10^6 human colon carcinoma Colo205 cells, 10×10^6 human lung carcinoma Calu6 cells, 10×10^6 human lung carcinoma MV-522 cells, 10×10^6 mouse leukemia WEHI-3 cells, 10×10^6 mouse lymphoma EL4 cells, 10×10^6 human ovarian cancer SK-OV-3 X1 cells, 10×06 mouse lung cancer LL2 cells, 10×10^6 leukemia/lymphoma EL4 cells, or 10×10^6 non-small lung cancer H1299 cells were injected into each mouse. For human melanoma MDA-MB-435 model, mice were injected into the mammary fat pad with 0.1 ml cell (5×10^6) suspension containing 50% matrigel. […] For the following tumor models, each test mouse received a subcutaneous tumor fragment (1 mm^3) implanted in the right flank: non-small lung cancer SKMES-1, human breast cancer MX-1, human colorectal cancer SW620 and human adenocarcinoma LS174T. The tumor growth was quantitated by caliper measurements. Tumor volume (mm^3) was determined by measuring the length (l) and width (w) and calculating the volume (V=lw2/2). 10 to 15 animals were included in each group. Statistical comparison of treatment groups was performed using two-tailed Student's t-test. […]
# human Delta4 (ECD5.5) = molecular target: T1, human Delta4 (ECD5.5) (Homo sapiens, UniProt Q9NR61); test: Surface plasmon resonance (BIAcore-3000) binding affinity and kinetics; settings: human DLL4-His; Kd calculated as koff/kon; listed as YW26.81
# T1 construct: DLL4-His (C-terminal His-tagged human DLL4, amino acid 1-404); His (C)
# Description: (§2) To determine the binding affinity of the anti-DLL4 Mabs, surface plasmon resonance (SRP) measurement with a BIAcore™-3000 was used (BIAcore, Inc., Piscataway, N.J.). Briefly, carboxymethylated dextran biosensor chips (CM5, BIAcore Inc.) were activated with N-ethyl-N′-(3-dimethylaminopropyl)-carbodiimide hydrochloride (EDC) and N-hydroxysuccinimide (NHS) according to the supplier's instructions. Anti-DLL4 antibody was diluted with 10 mM sodium acetate, pH 4.8, into 5 μg/ml before injection at a flow rate of 5 μl/minute to achieve approximately 500 response units (RU) of coupled antibody. Next, IM ethanolamine was injected to block unreacted groups. For kinetics measurements, two-fold serial dilutions of either human or murine DLL4-His molecules (0.7 nM to 500 nM) were injected in PBS with 0.05% Tween™ 20 at 25° C. at a flow rate of 25 μl/min. Association rates (kon) and dissociation rates (koff) were calculated using a simple one-to-one Langmuir binding model (BIAcore Evaluation Software version 3.2). The equilibrium dissociation constant (Kd) was calculated as the ratio koff/kon.
# murine Delta4 (ECD5.5) = molecular target: T2, murine Delta4 (ECD5.5) (Mus musculus, UniProt Q9JI71); test: as above; settings: murine DLL4-His; Kd calculated as koff/kon
# T2 construct: murine Delta4 (ECD5.5); His
# T2 sequence (Q9JI71 27-405 limits assumed): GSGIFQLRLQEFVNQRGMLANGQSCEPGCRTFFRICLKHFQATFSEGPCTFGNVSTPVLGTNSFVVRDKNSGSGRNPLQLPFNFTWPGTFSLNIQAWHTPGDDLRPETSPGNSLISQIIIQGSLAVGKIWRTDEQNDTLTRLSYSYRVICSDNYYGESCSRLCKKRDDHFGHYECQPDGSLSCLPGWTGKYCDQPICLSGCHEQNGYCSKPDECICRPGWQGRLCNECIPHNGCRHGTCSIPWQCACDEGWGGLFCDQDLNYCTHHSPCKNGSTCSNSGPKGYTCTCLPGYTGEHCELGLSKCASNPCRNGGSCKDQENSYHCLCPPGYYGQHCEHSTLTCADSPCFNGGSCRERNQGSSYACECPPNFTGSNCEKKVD
# Description: as §2
# [2] = tested on: human adenocarcinoma LS174T; test: Tumor model LS174T; assay type: in vivo, mouse; settings: 5 mg/kg, IP, twice weekly after establishment of the tumors
# Description: as §1
# [3] = tested on: human lung carcinoma Calu6 cells; test: Tumor model Calu6; assay type: in vivo, mouse; settings: treatment initiated at ≧250 mm^3; 10 mg/kg i.p. twice weekly; two weeks of treatment
# Description: as §1
# [4] = tested on: mouse lung cancer LL2 cells; test: Tumor model LL2; assay type: in vivo; settings: 5 mg/kg, IP, twice weekly after establishment of the tumors
# Description: as §1
# DLL4 = DLL4 (Homo sapiens, UniProt Q9NR61); test: Notch ligand: Notch blocking ELISA (DLL4-AP / DLL4-His binding to coated rNotch1); parameters: amino acid 1-404 of DLL4 fused to human placenta alkaline phosphatase; made in house; host or cells: 293 cells, conditioned medium (DLL4-AP); settings: purified DLL4-His, read-out: calculated IC50, blocking the binding of DLL4-His to coated rNotch1
# Description: Conditioned medium containing DLL4-AP (amino acid 1-404 of DLL4 fused to human placenta alkaline phosphatase) was used in the assay. To prepare conditioned medium, 293 cells were transiently transfected with plasmid expressing DLL4-AP with Fugen6 reagent (Roche Molecular Biochemicals). Five days posttransfection, the conditioned medium was harvested, filtered and stored at 4° C. Purified antibodies titrated from 0.15 to 25 μg/ml were preincubated for 1 hr at room temperature with DLL4-AP conditioned medium at a dilution that conferred 50% maximally achievable binding to coated rrNotch1-Fc. The antibody/DLL4-AP mixture was then added to rrNotch1-Fc coated plate for 1 hr at room temperature, after which plates were washed several times in PBS. The bound DLL4-AP was detected using 1-Step PNPP (Pierce) as substrate and OD 405 nm absorbance measurement. […] The bound His-tagged ligands was detected with mouse anti-His mAb (1 μg/ml, Roche Molecular Biochemicals), biotinylated goat-anti-mouse (Jackson ImmunoResearch) and Streptavidin-AP (Jackson ImmunoResearch).
# full length DLL4 = molecular target: T3, full length DLL4 (Homo sapiens, UniProt Q9NR61); test: FACS analysis of transiently transfected 293 cells; assay type: binding; settings: DLL4 transfected 293 cells; antibody 2 μg/ml
# T3 construct: transiently transfected with vector, full length DLL4, Jag1 or DLL1; expressed in transfected cells; host or cells: 293 cells, transient
# [5] = tested on: non-small lung cancer H1299 cells; test: Tumor model H1299; assay type: in vivo, mouse; settings: 5 mg/kg, IP, twice weekly after establishment of the tumors
# Description: as §1
# retinal vasculature = test: Mouse neonatal retina study; assay type: in vivo
# Description: Mouse neonatal retina study. […] Eyes were collected on P5, and fixed with 4% PFA in PBS overnight. The dissected retinas were blocked with 10% goat serum in PBST for 3 hrs, then incubated overnight with primary antibodies. The primary cocktail included biotinylated isolectin B4 (25 μg/ml, Bandeiraea simplicifolia; Sigma), and one of the following: rabbit anti-mouse Ki67 (1:1, ready-to-use, clone Sp6, Lab Vision), or mouse Cy3-conjugated anti-alpha SMA (1:2000, Sigma-Aldrich), with 10% serum in PBLEC (1% Triton X-100, 0.1 mM CaCl2, 0.1 mM MgCl2, 0.1 mM MnCl2, in PBS pH6.8). Retinas were then washed in PBST, and incubated overnight with secondary antibody combination of Alexa Fluor® 488 streptavidin (1:200; Molecular Probes) and Cy3-anti-rabbit IgG (1:200; Jackson ImmunoResearch). After staining was completed, retinas were post fixed with 4% PFA in PBS. All overnight incubations were done at 4° C. Images of flat mounted retinas were captured by confocal fluorescence microscopy.
# Early postnatal mouse retina develops a stereotypic vascular pattern in a well-defined sequence of events (Stone, J. & Dreher, Z. J Comp Neurol 255, 35-49 (1987); Gerhardt, H. et al. J Cell Biol 161, 1163-77 (2003); Fruttiger, M. Invest Opthalmol Vis Sci 43, 522-7 (2002)). […] Therefore, this hyperproliferative phenotype of retinal ECs upon DLL4 blockade in neonatal mice corroborated the in vitro findings.
# [6] = neonatal CD1 mice, 10 mg/kg i.p. on P1 and P3, eyes collected P5
# [7] = neonatal mice, 10 mg/kg i.p. on P1 and P3
substance,measurement,setting,value
"YW26.82: affinity matured anti-DLL4 monoclonal antibody; HVR-H1/H2/H3 SEQ ID NO:1, 8, 9; HVR-L1/L2/L3 SEQ ID NO:10, 11, 18",tumor volume,[1],remained static
same,Kd,human Delta4 (ECD5.5),0.1 nM
same,Kd,murine Delta4 (ECD5.5),0.09 nM
same,"tumor growth, single agent",[2],inhibited tumor growth alone
same,tumor volume,[3],remained static
same,"tumor growth, single agent",[4],inhibited tumor growth alone
same,IC50,DLL4,~8 nM
same,binding by FACS,full length DLL4,significant binding
same,"tumor growth, single agent",[5],inhibited tumor growth alone
same,Ki67 labeling in retinal ECs,retinal vasculature; [6],significant increase of Ki67 labeling in ECs
same,accumulation of ECs in neonatal retina,retinal vasculature; [6],massive accumulation of ECs
same,anti-α smooth muscle actin (ASMA) staining of retinal arteries,retinal vasculature; [7],completely absent
same,pattern of radially alternating arteries and veins in retina,retinal vasculature; [7],severely disrupted
